# Laboratory results reported in patent publication US5760017A, “Cyclodextrin derivatives usable in particular for solubilizing hydrophobic chemical compounds such as medicaments and their preparation process” (priority 1993, dated 1998).
# Like-named read-outs stand apart in the source and are kept apart here.
# Tests used:
# [1] = Solubilization of prednisolone in water by the cyclodextrin derivative; type: physicochemical
# Method: 10 μmole of heptakis-6-ethanolamino-6-deoxycyclomaltoheptaose (in hydrochloride form) prepared in example 1, are dissolved in 1 ml of pure water (apyrogenic water for injection) and addition takes place of 5 μmole of prednisolone in the form of a 50 mmole/l concentrated solution in acetone. The acetone is eliminated by nitrogen passage for 10 minutes and the solution is lyophilized.
# The residual solid, which contains 10 μmole of the cyclodextrin derivative and 5 μmole of prednisolone, is redissolved in the minimum of water at 25° C.
# [2] = Solubility in water under physiological conditions; settings: sodium phosphate buffer, pH 7.4, aqueous buffer
# human erythrocytes = assay: Hemolytic properties on human erythrocytes; type: cell-based; settings: 5 mmole/l hydrochloride solution (4 ml) with 0.4 ml human erythrocytes, pH 7.4, 30 minutes, 37° C.
# Method: Thus, the hemolytic properties of the derivative obtained in example 1 were tested by contacting 0.4 ml of a solution of human erythrocytes and 4 ml of the 5 mmole/l hydrochloride solution, at a pH of 7.4, for 30 minutes and 37° C.
# [3] = Ionization potential measurements (pK) by potentiometry; type: physicochemical
# [4] = Solubility in water under physiological conditions, free base form, pH 7.40, 25° C.
# [5] = Solubility in water under physiological conditions, hydrochloride form, pH 7.40, 25° C.
# [6] = potentiometry, single pK, read-out: pK (single)
maximum prednisolone solubility reached in water in the presence of the cyclodextrin (derivative) [1],"solubility [2, 4]","solubility [2, 5]","pKa [3, 6]",SMILES,hemolysis (in words) (human erythrocytes),"maximum prednisolone solubility reached in water in the presence of the cyclodextrin (derivative) ([1]; 25° C., 10 μmole cyclodextrin derivative and 5 μmole prednisolone, lyophilized, redissolved in minimum of water (cyclodextrin derivative at 60 mmole/l for the per-substituted derivative))",solubility [2],"pKa ([3]; first of two pK's, read-out: pK (first of two))","pKa ([3]; second of two pK's, read-out: pK (second of two))"
18 mM,40 mM,95 mM,7.1,"OCCNC[C@H]1O[C@@H]2O[C@H]3[C@H](O)[C@@H](O)[C@@H](O[C@H]4[C@H](O)[C@@H](O)[C@@H](O[C@H]5[C@H](O)[C@@H](O)[C@@H](O[C@H]6[C@H](O)[C@@H](O)[C@@H](O[C@H]7[C@H](O)[C@@H](O)[C@@H](O[C@H]8[C@H](O)[C@@H](O)[C@@H](O[C@H]1[C@H](O)[C@H]2O)O[C@@H]8CO)O[C@@H]7CO)O[C@@H]6CO)O[C@@H]5CO)O[C@@H]4CO)O[C@@H]3CO [Example 1, mono-6-ethanolamino-6-deoxycyclomaltoheptaose]",no hemolysis was observed,–,–,–,–
30 mM,140 mM,350 mM,7.05,"OCCNC[C@H]1O[C@@H]2O[C@H]3[C@H](O)[C@@H](O)[C@@H](O[C@H]4[C@H](O)[C@@H](O)[C@@H](O[C@H]5[C@H](O)[C@@H](O)[C@@H](O[C@H]6[C@H](O)[C@@H](O)[C@@H](O[C@H]7[C@H](O)[C@@H](O)[C@@H](O[C@H]8[C@H](O)[C@@H](O)[C@@H](O[C@H]1[C@H](O)[C@H]2O)O[C@@H]8CNCCO)O[C@@H]7CNCCO)O[C@@H]6CNCCO)O[C@@H]5CNCCO)O[C@@H]4CNCCO)O[C@@H]3CNCCO [Example 2, heptakis-6-ethanolamino-6-deoxycyclomaltoheptaose]",–,–,–,–,–
–,–,–,–,NCCNC[C@H]1O[C@@H]2O[C@H]3[C@H](O)[C@@H](O)[C@@H](O[C@H]4[C@H](O)[C@@H](O)[C@@H](O[C@H]5[C@H](O)[C@@H](O)[C@@H](O[C@H]6[C@H](O)[C@@H](O)[C@@H](O[C@H]7[C@H](O)[C@@H](O)[C@@H](O[C@H]8[C@H](O)[C@@H](O)[C@@H](O[C@H]1[C@H](O)[C@H]2O)O[C@@H]8CO)O[C@@H]7CO)O[C@@H]6CO)O[C@@H]5CO)O[C@@H]4CO)O[C@@H]3CO [reference compound],–,12 mM,70 mM,7.5,9.5
